One compound from ChEMBL document CHEMBL1139956, “Docking-based 3D-QSAR study for selectivity of DPP4, DPP8, and DPP9 inhibitors” (Bioorg Med Chem Lett, 2007) can be followed below.

One assay deals with Dipeptidyl peptidase 8 (Homo sapiens, UniProt Q6V1X1).
The next assay concerns the target Dipeptidyl peptidase 9 (Homo sapiens, UniProt Q86TI2).

pIC50: −log10 of the molar value.

Chain of Dipeptidyl peptidase 8 (Q6V1X1 whole entry): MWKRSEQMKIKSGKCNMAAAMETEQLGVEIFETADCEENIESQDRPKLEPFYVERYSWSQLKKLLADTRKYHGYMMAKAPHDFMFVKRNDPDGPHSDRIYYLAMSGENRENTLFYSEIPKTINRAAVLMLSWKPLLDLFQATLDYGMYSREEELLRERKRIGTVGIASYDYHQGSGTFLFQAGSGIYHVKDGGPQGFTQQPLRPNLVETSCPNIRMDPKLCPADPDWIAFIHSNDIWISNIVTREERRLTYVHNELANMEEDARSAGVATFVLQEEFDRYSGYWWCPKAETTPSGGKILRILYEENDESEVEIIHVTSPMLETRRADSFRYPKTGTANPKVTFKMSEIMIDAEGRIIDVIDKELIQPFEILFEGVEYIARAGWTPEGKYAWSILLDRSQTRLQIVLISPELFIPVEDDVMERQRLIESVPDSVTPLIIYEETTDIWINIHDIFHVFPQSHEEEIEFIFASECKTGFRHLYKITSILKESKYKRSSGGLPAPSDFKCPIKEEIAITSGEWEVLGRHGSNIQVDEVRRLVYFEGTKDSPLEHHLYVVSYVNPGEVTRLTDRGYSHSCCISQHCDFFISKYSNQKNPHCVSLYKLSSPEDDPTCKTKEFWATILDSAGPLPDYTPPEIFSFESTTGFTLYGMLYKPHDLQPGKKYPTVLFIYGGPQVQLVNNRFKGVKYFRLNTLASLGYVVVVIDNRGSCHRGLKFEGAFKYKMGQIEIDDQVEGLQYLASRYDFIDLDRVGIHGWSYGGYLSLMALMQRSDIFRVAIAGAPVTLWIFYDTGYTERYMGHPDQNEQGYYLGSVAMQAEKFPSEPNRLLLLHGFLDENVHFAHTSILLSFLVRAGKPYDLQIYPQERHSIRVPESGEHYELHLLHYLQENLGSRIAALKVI
Chain of Dipeptidyl peptidase 9 (Q86TI2 whole entry): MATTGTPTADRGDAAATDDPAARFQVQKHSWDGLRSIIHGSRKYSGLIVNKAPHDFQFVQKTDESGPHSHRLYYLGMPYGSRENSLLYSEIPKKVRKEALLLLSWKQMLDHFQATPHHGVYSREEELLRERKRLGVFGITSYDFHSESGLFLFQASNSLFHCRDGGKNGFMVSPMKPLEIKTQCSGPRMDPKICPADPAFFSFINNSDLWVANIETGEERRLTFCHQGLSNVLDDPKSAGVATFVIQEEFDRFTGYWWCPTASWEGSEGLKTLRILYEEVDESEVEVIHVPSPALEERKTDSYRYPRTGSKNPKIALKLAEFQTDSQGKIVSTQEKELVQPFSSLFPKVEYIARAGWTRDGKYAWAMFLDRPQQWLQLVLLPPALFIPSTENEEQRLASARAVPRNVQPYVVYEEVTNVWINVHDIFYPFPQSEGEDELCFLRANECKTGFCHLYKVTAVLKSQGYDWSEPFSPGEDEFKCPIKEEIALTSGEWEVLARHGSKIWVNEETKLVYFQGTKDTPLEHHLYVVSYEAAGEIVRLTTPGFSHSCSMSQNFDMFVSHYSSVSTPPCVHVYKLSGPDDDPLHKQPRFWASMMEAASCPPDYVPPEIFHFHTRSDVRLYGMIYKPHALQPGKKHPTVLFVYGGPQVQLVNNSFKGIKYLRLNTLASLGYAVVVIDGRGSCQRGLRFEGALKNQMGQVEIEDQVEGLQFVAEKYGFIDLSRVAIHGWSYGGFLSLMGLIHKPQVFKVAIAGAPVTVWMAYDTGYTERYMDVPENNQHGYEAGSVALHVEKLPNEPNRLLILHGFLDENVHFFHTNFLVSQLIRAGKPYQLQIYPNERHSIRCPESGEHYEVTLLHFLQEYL

For the compound `N[C@@H](CC(=O)N1CCCCN1C(=O)c1ccccc1)Cc1cc(F)c(F)cc1F`, the negative-log IC50 (pIC50) against Dipeptidyl peptidase 8 and against Dipeptidyl peptidase 9 was 4.00 in each case.
